Reference: patent US20090142429A1, “SILICIBACTER SP. STRAIN USEFUL FOR GENETIC TRANSFORMATION OF MARINE ALGAE AND PRODUCTION OF ANTIBIOTIC AGENTS” (UNIVERSITY OF MARYLAND BIOTECHNOLOGY INSTITUTE, priority 2005, published 2009)
Several values for one entry are separate records, joined by “and”; a condition that tells them apart may be missing. Equal entries are not always repeated.

Legend:
[1] = system: Silicibacter sp. strain TM1040; assay: Quantitative capillary chemotaxis assay; type: cell-based; details: for response factor (mean): pure compounds, FIG. 12, capillaries filled with 2 μM or 200 μM attractant; for mean concentration of bacteria in methionine-filled capillaries: starved cells
Source text: The cells were pelleted by centrifugation at 4,000×g in a tabletop centrifuge (Centra-CL2; International Equipment Company), the supernatant was discarded, and the pellet was resuspended in chemotaxis buffer (CB) (15 g of ASW, 6 g of Tris-HCl per liter [pH 7.6]) to the same OD. Five hundred microliters of washed cells was placed in one of the wells of the Palleroni chamber, followed by a 1-μl capillary (Microcaps; Drummond) filled with a putative attractant diluted in CB. This process was repeated for each of the four wells in the chamber. A capillary filled with CB only was included in each experiment as a negative control. Depending on the experiment, capillaries remained in the chambers for 0.5 to 2 h, after which time they were removed, and the contents of each capillary were serially diluted in CB. Final dilutions were then spread on HIASW agar plates and incubated for 16 h at 30° C. The concentration of TM1040 in each capillary was derived by counting the CFU on each plate and multiplying by the appropriate dilution factor. […]

[2] = system: Silicibacter sp. strain TM1040; assay: Capillary assay: reduction in chemotaxis toward P. piscicida homogenates by externally supplied attractant; type: cell-based; details: for % Reduction in CFU per capillary compared to the control / No. of bacteria per capillary (CFU · 10^4), attractant added to external buffer: 200 μM attractant in external buffer; for No. of bacteria per capillary (CFU · 10^4), attractant added to external buffer: SD in parentheses; for mean number of bacteria in the untreated capillaries: untreated homogenate, attractant supplied externally in the buffer
Description: The capillary assay was also used to measure the reduction in chemotaxis through competition when a known attractant was supplied exogenously (i.e., outside the capillary). In this variation, the quantitative capillary method was used, but a known attractant was included in the CB used to suspend the washed cells. A capillary containing a mixture of potential chemoattractant molecules was then placed in the chamber and incubated as described earlier. At the completion of the assay, the percent reduction in chemotaxis was calculated using the following formula: % reduction=[1−(CFU ml^−1exogenous/CFU ml^−1control)]×(100).
Dinoflagellates and Rhodomonas sp. were grown to late exponential phase (ca. 10^5 to 10^6 cells per ml), and the cell density was measured using a Coulter Counter (model M/SZRII; Beckman Coulter). Dinoflagellates were harvested after starvation of the culture to remove Rhodomonas prey algae, which was confirmed by microscopy. The cell densities in P. piscicida and Rhodomonas cultures were normalized to 10^5 cells per ml, and each culture was then pelleted by centrifugation at 4,000×g and 4° C. for 10 min. The supernatant was removed, and the pellets were separately resuspended with either 1 ml of ice-cold distilled water or CB. The cells were homogenized by sonication (Sonic Dismembrator; Fisher), and cell disruption was assessed by microscopy. To examine the heat sensitivity of chemotaxis elicitors, an aliquot of each homogenate was heated to 80° C. for 15 min prior to the assay. All homogenates were then stored at −20° C. When required, the homogenates were thawed, held on ice, and used in the capillary assay as described.

[3] = system: Silicibacter sp. strain TM1040; assay: Chemotaxis plate screening assay (change in motile colony morphology); type: cell-based; details: for Response: change in motile colony morphology of TM1040 in response to attractants, compared to the control / chemotactic response of TM1040 in plate assay: BM glycerol motility agar; for Change in morphology with carbon source Alanine / Change in morphology with carbon source Glucose / Change in morphology with carbon source Glycerol / Change in morphology with carbon source Succinate: BM motility agar; for Change in morphology with carbon source Alanine: alanine as single carbon source; for Change in morphology with carbon source Glucose: glucose as single carbon source; for Change in morphology with carbon source Glycerol: glycerol as single carbon source; for Change in morphology with carbon source Succinate: succinate as single carbon source; as to Change in morphology with carbon source Alanine: key: −: minus indicates no change compared to distilled water or no attractant controls; +: either one or two pluses indicates moderate to strong alteration in motile colony phenotype (respectively); ++: either one or two pluses indicates moderate to strong alteration in motile colony phenotype (respectively); as to Change in morphology with carbon source Glucose: key: −: minus indicates no change compared to distilled water or no attractant controls; +: either one or two pluses indicates moderate to strong alteration in motile colony phenotype (respectively); ++: either one or two pluses indicates moderate to strong alteration in motile colony phenotype (respectively); as to Change in morphology with carbon source Glycerol: key: −: minus indicates no change compared to distilled water or no attractant controls; +: either one or two pluses indicates moderate to strong alteration in motile colony phenotype (respectively); ++: either one or two pluses indicates moderate to strong alteration in motile colony phenotype (respectively); as to Response: change in motile colony morphology of TM1040 in response to attractants, compared to the control: key: −: minus indicates no change compared to distilled water or no attractant controls; +: either one or two pluses indicates moderate to strong alteration in motile colony phenotype (respectively); ++: either one or two pluses indicates moderate to strong alteration in motile colony phenotype (respectively)
Description: Following 36 h of incubation, a putative attractant was placed approximately 5 cm from the site of inoculation (or 2.5 cm in front of the periphery of motile cells). Possible chemoattractant compounds were administered as either a sterile solid or concentrated stock solutions. The cells were further incubated for 16 h to allow for additional outward movement, at which time measurement of diameter, shape, and chemotaxis rings internal to the motile colony were made.
[…] Bacteria inoculated into the center of the agar consume nutrients and create a concentration gradient that increases outward from the point of inoculation. The bacteria sense the increasing gradient and swim outwards, seeking higher concentrations of nutrients, which is manifested as a symmetrical “motile” colony. If an attractant is placed at a short distance in front of the advancing motile colony, it forms a second gradient moving towards the oncoming cells that will affect the symmetry of the colony by reducing the net outward swimming of the bacteria.

[4] = Destruction of DMSP by heating (GC-FID); type: physicochemical
Description: The concentration of DMSP in 1 ml-samples of heated or boiled 200 μM DMSP and in heated and untreated P. piscicida homogenates was measured using gas chromatography with flame ionization detection, as previously described.
Destruction of 200 μM DMSP in CB was assessed after heating the samples to either 80 or 100° C. for 15 min. At both temperatures, negligible (<2%) loss of DMSP was observed.
An alternative explanation for why heat reduced the chemoattractant quality of the homogenates is that heat acts indirectly through an intermediate to inactivate DMSP. This hypothesis predicts that the concentration of DMSP decreases when a homogenate is heated. The DMSP concentration in untreated and heated homogenates was measured. In untreated P. piscicida homogenates the mean concentration of DMSP was 8.21±1.2 μM. After the homogenate was heated, the concentration of DMSP fell below the level of detectability (<1 μM).

[5] = heated (80° C. for 15 min) P. piscicida homogenate
[6] = untreated P. piscicida homogenate

Structure (SMILES)	response factor (mean) [1]	% Reduction in CFU per capillary compared to the control [2, 5]	No. of bacteria per capillary (CFU · 10^4), attractant added to external buffer [2, 5]	% Reduction in CFU per capillary compared to the control [2, 6]	No. of bacteria per capillary (CFU · 10^4), attractant added to external buffer [2, 6]	mean number of bacteria in the untreated capillaries [2]	Response: change in motile colony morphology of TM1040 in response to attractants, compared to the control [3]	chemotactic response of TM1040 in plate assay [3]	Change in morphology with carbon source Alanine [3]	Change in morphology with carbon source Glucose [3]	Change in morphology with carbon source Glycerol [3]	Change in morphology with carbon source Succinate [3]	other results
C[S+](C)CCC(=O)[O-] [DMSP, Dimethylsulfoniopropionate]	8.2	11% and 11.68%	3.10 (±0.16) CFU · 10^4	54% and 54.01%	3.33 (±0.15) CFU · 10^4	3.33×10^4 CFU per ml	++	marked deformation in the periphery of the motile colony	+	−	++	+	loss of DMSP ([4]; 200 μM DMSP in CB heated to either 80 or 100° C. for 15 min): < 2%; concentration of DMSP in P. piscicida homogenates ([4]; after the homogenate was heated, level of detectability): < 1 µM; mean concentration of DMSP in P. piscicida homogenates ([4]; untreated homogenate): 8.21 ± 1.2 µM
NCCCC[C@H](N)C(=O)O [lysine]	ca. 3.5						+		−	−	+	−	
CSCC[C@H](N)C(=O)O [methionine]	9.8	48%	1.80 (±0.11) CFU · 10^4	58%	3.03 (±0.32) CFU · 10^4	3.03×10^4 CFU per ml	++	significant effects on the periphery of the motile colony					mean concentration of bacteria in methionine-filled capillaries ([1]; 0.5 h, 200 μM): 5.3×10^7 CFU per ml; mean concentration of bacteria in methionine-filled capillaries ([1]; 1 h, 200 μM): 1.8×10^8 CFU per ml; mean concentration of bacteria in methionine-filled capillaries ([1]; 1.5 h, 200 μM): 2.4×10^8 CFU per ml; mean concentration of bacteria in methionine-filled capillaries ([1]; 2 h, 200 μM): 2.4×10^8 CFU per ml; maximum mean concentration of bacteria in methionine-filled capillaries ([1]; without starvation, peak at 1.5 h, 200 μM): 2.1×10^8 CFU per ml; % Reduction in CFU per capillary compared to the control ([2]; heated (80° C. for 15 min) P. piscicida homogenate, listed as Methionine): 48.72%; % Reduction in CFU per capillary compared to the control ([2]; untreated P. piscicida homogenate, listed as Methionine): 58.15%
CC(C)[C@H](N)C(=O)O [valine]	6.1	74%	0.91 (±0.24) CFU · 10^4	78%	1.53 (±0.15) CFU · 10^4	1.53×10^4 CFU per ml	++	significant effects on the periphery of the motile colony	+	−	++	+	% Reduction in CFU per capillary compared to the control ([2]; heated (80° C. for 15 min) P. piscicida homogenate, listed as Valine): 74.07%; % Reduction in CFU per capillary compared to the control ([2]; untreated P. piscicida homogenate, listed as Valine): 78.87%
